# Measurements reported in ChEMBL document CHEMBL4819083, “Synthesis of pyranochalcone derivatives and their inhibitory effect on NF-κB activation” (Bioorg Med Chem Lett, 2021).
# Calls of active or inactive are those of the source. The calls are words filed in the database; no cut-off is given here.
# What was measured:
# RAW264.7 [1] = experiment: Inhibition of LPS-induced NO expression in mouse RAW264.7 cells at 2 to 20 uM preincubated for 2 hr followed by LPS stimulation and measured after 24 hrs; assay type: functional, cell-based; conditions: dose 2-20 µM
# RAW264.7 [2] = experiment: Inhibition of LPS-induced IL-1beta mRNA expression in mouse RAW264.7 cells at 2 to 20 uM preincubated for 2 hr followed by LPS stimulation and measured after 6 hrs by qRT-PCR; assay type: functional, cell-based; conditions: dose 2-20 µM
# RAW264.7 [3] = experiment: Inhibition of LPS-induced pro IL-1beta expression in mouse RAW264.7 cells at 2 to 20 uM preincubated for 2 hr followed by LPS stimulation and measured after 6 hrs by Western blot analysis; assay type: functional, cell-based; conditions: dose 2-20 µM
# RAW264.7 [4] = experiment: Inhibition of LPS-induced iNOS expression in mouse RAW264.7 cells at 2 to 20 uM preincubated for 2 hr followed by LPS stimulation and measured after 6 hrs by Western blot analysis; assay type: functional, cell-based; conditions: dose 2-20 µM
# BMDM [5] = experiment: Inhibition of LPS-induced IL-1beta secretion in mouse BMDM cells at 2 to 20 uM preincubated for 2 hr followed by LPS stimulation and measured after 4 hrs; assay type: functional, cell-based; conditions: dose 2-20 µM
# BMDM [6] = experiment: Inhibition of LPS-induced IL-1beta mRNA expression in mouse BMDM cells at 5 to 10 uM preincubated for 2 hr followed by LPS stimulation and measured after 6 hrs by qRT-PCR; assay type: functional, cell-based; conditions: dose 5-10 µM
# [7] = biological target: T1, Inhibitor of nuclear factor kappa-B kinase subunit alpha (Mus musculus) (UniProt Q60680); experiment: Inhibition of IKKalpha in mouse RAW264.7 cells assessed as inhibition of LPS-induced IKK-alpha phosphorylation level pre-treated for 2 hrs followed by LPS stimulation and measured after 6 hrs by Western blot analysis; assay type: cell-based
# T1 sequence (whole entry): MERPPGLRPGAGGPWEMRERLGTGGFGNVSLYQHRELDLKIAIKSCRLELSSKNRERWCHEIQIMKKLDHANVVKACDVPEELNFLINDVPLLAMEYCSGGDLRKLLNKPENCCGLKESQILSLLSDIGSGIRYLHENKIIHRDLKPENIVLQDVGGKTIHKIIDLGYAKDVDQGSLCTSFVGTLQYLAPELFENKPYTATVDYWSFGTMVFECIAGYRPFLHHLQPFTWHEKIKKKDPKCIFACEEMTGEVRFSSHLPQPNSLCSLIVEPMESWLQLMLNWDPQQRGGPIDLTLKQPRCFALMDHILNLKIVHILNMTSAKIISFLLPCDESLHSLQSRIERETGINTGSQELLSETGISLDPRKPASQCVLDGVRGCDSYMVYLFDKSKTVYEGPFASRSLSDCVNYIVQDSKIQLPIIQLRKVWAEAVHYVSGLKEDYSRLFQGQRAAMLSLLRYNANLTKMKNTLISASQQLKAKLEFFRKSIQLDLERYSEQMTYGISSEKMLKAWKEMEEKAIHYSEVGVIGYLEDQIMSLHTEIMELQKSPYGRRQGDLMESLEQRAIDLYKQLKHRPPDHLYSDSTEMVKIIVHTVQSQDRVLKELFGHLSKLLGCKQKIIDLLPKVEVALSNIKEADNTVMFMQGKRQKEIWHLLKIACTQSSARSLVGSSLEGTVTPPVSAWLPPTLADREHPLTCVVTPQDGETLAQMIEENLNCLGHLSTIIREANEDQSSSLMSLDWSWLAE
# RAW264.7 [8] = experiment: Inhibition of NF-kappaB in mouse RAW264.7 cells assessed as reduction in LPS-induced p65 phosphorylation pre-treated for 2 hrs followed by LPS stimulation and measured after 6 hrs by Western blot analysis; assay type: cell-based
# RAW264.7 [9] = experiment: Inhibition of MAPK signalling activation in mouse RAW264.7 cells assessed as reduction in LPS-induced p38 phosphorylation pre-treated for 2 hrs followed by LPS stimulation and measured after 6 hrs by Western blot analysis; assay type: cell-based
# RAW264.7 [10] = experiment: Cytotoxicity against mouse RAW264.7 cells at > 50 uM; assay type: cell-based
smiles,measurement,setting,value
C=CC(=O)Oc1ccc(/C=C/C(=O)c2c(OC)cc3c(c2OC(=O)C=C)CCC(C)(C)O3)cc1,inhibition,RAW264.7 [1],Active
same,inhibition,RAW264.7 [2],Active
same,inhibition,RAW264.7 [3],Active
same,inhibition,RAW264.7 [4],Active
same,inhibition,BMDM [5],Active
same,inhibition,BMDM [6],Active
same,inhibition,[7],Active
same,inhibition,RAW264.7 [8],Active
same,inhibition,RAW264.7 [9],Active
same,Activity,RAW264.7 [10],Non-Toxic
